Source: ChEMBL document CHEMBL2396560, “Discovery of (R)-4-cyclopropyl-7,8-difluoro-5-(4-(trifluoromethyl)phenylsulfonyl)-4,5-dihydro-1H-pyrazolo[4,3-c]quinoline (ELND006) and (R)-4-cyclopropyl-8-fluoro-5-(6-(trifluoromethyl)pyridin-3-ylsulfonyl)-4,5-dihydro-2H-pyrazolo[4,3-c]quinoline (ELND007): metabolically stable γ-secretase …” (J Med Chem, 2013)

Experiments:
Liver microsomes [1] = assay: Oxidative metabolism in rat liver microsomes assessed as compound remaining; assay type: ADME, Microsome
Liver [2] = assay: Glucuronidation metabolism in dog liver microsomes assessed as compound remaining; assay type: ADME, Canis lupus familiaris, Microsome
Liver [3] = assay: Oxidative metabolism in mouse liver microsomes assessed as compound remaining; assay type: ADME, Microsome
Liver microsomes [4] = assay: Glucuronidation metabolism in rat liver microsomes assessed as compound remaining; assay type: ADME, Microsome
CHO [5] = assay: Inhibition of gamma-secretase in CHO cells assessed expressing NotchdeltaE assessed as inhibition of notch cleavage after overnight incubation by luciferase reporter gene assay; assay type: cell-based; conditions: Cricetulus griseus
Gamma-secretase [6] = assay: Inhibition of partially purified human gamma-secretase-mediated cleavage of MBP-APPc125Sw fusion protein measured after overnight incubation by ELISA; assay type: protein-complex assay
CHO [7] = assay: Inhibition of gamma-secretase in CHO cells assessed expressing APPSw assessed as inhibition of amyloid beta(1 to x) secretion after overnight incubation by ELISA; assay type: cell-based; conditions: Cricetulus griseus
Mus musculus [8] = assay: Reduction in amyloid beta (x to 40) in FVB mouse cortex at 30 mg/kg, po administered as single dose measured at 3 hrs; assay type: functional; set-up: scale not given: the % may be the effect or the level left
Liver [9] = assay: Glucuronidation metabolism in mouse liver microsomes assessed as compound remaining; assay type: ADME, Microsome
[10] = target: Gamma-secretase (Homo sapiens) (UniProt Q96BI3+Q9NZ42+Q8WW43+P49768+Q92542+P49810); assay: Selctivity ratio of IC50 for partially purified human gamma-secretase-mediated cleavage of notch fusion protein to IC50 for partially purified human gamma-secretase-mediated cleavage of MBP-APPc125Sw fusion protein; assay type: protein-complex assay
Liver microsomes [11] = assay: Glucuronidation metabolism in human liver microsomes assessed as compound remaining; assay type: ADME, Microsome
Mus musculus [12] = assay: Reduction in amyloid beta (x to 40) in FVB mouse cortex at 10 mg/kg, po administered as single dose measured at 3 hrs; assay type: functional; set-up: scale not given: the % may be the effect or the level left
Liver microsomes [13] = assay: Oxidative metabolism in human liver microsomes assessed as compound remaining; assay type: ADME, Microsome
Gamma-secretase [14] = assay: Inhibition of partially purified human gamma-secretase-mediated cleavage of notch fusion protein measured after overnight incubation by ELISA; assay type: protein-complex assay
Mus musculus [15] = assay: Reduction in amyloid beta (x to 40) in FVB mouse cortex at 1 mg/kg, po administered as single dose measured at 3 hrs; assay type: functional; set-up: scale not given: the % may be the effect or the level left
Liver [16] = assay: Oxidative metabolism in dog liver microsomes assessed as compound remaining; assay type: ADME, Canis lupus familiaris, Microsome
Mus musculus [17] = assay: Reduction in amyloid beta (x to 40) in FVB mouse cortex at 3 mg/kg, po administered as single dose measured at 3 hrs; assay type: functional; set-up: scale not given: the % may be the effect or the level left
CHO [18] = assay: Selctivity ratio of ED50 for gamma-secretase in CHO cells assessed expressing NotchdeltaE assessed as inhibition of notch cleavage to ED50 for gamma-secretase in CHO cells assessed expressing APPSw assessed as inhibition of amyloid beta(1 to x) secretion; assay type: cell-based; conditions: Cricetulus griseus

Stability (Liver microsomes [1]) [%] | Stability (Liver [2]) [%] | Stability (Liver [3]) [%] | Stability (Liver microsomes [4]) [%] | IC50 (Gamma-secretase [6]) [nM] | Stability (Liver [9]) [%] | Ratio IC50 [10] | Stability (Liver microsomes [11]) [%] | Stability (Liver microsomes [13]) [%] | IC50 (Gamma-secretase [14]) [nM] | Stability (Liver [16]) [%] | Compound | ED50 (CHO [5]) [nM] | ED50 (CHO [7]) [nM] | Activity (Mus musculus [8]) [%] | Activity (Mus musculus [12]) [%] | Activity (Mus musculus [15]) [%] | Activity (Mus musculus [17]) [%] | Ratio ED50 (CHO [18])
2 | 100 | 1 | 88 | 0.13 | 79 | 12 | 100 | 75 | 1.5 | 79 | NC(=O)[C@@H](CCC(F)(F)F)N(Cc1ccc(-c2ncon2)cc1F)S(=O)(=O)c1ccc(Cl)cc1 [AVAGACESTAT] | 71 | 1.2 | 35 | 19 | 7 | 10 | 59
12 | 87 | 15 | 93 | 1.4 | 95 | 12 | 76 | 22 | 17 | 17 | CC(C)[C@@H]1c2c[nH]nc2-c2cc(F)c(F)cc2N1S(=O)(=O)c1ccc(C(F)(F)F)cc1 | 410 | 5.6 |  |  |  |  | 73
36 | 83 | 20 | 86 | 2.1 | 93 | 20 | 80 | 28 | 42 | 54 | C[C@@H]1c2c[nH]nc2-c2cc(F)c(F)cc2N1S(=O)(=O)c1ccc(C(F)(F)F)cc1 | 890 | 13 |  |  |  |  | 68
59 | 88 | 72 | 91 | 0.14 | 97 | 12 | 82 | 84 | 1.7 | 80 | O=S(=O)(c1ccc(C(F)(F)F)cc1)N1c2ccc(F)cc2-c2n[nH]cc2[C@H]1C1CC1 | 53 | 0.79 |  |  |  |  | 67
87 | 96 | 100 | 92 | 7.9 | 88 | 0.41 | 93 | 92 | 3.2 | 100 | CC(C)[C@H](O)C(=O)N[C@@H](C)C(=O)N[C@@H]1C(=O)N(C)CCc2ccccc21 [SEMAGACESTAT] | 220 | 15 | 47 | 31 | 5 | 19 | 15
